Source: PubChem BioAssay AID1963844 (Molecular Pharmacology Branch, DTP, NCI, 2024)
pIC50: −log10 of the molar value.

System: 422866-222-R5-J1-PDC complex spheroid viability
Assay: Anticancer human tumor 422866-222-R5-J1-PDC patient-derived pancreatic adenocarcinoma cell line growth inhibition [POLQ]
Conditions: for pIC50: curve of first compound; for viability, T/C: stronger effect = lower value
Protocol: Multicellular complex tumor spheroid response to Polymerase (POL) inhibitors (novobiocin, ART-558, RP6685) in combination with a variety of drugs and investigational agents in selected tumor cell lines
The POL inhibitors (novobiocin, ART-558, and RP6685) were evaluated both individually and in combination with standard of care and investigational anticancer small molecules within a complex spheroid model of solid tumors. . Complex spheroids include a stromal component modeled by human endothelial cells (HUVEC) and fibroblasts modeled by human mesenchymal stem cells (MSCs). The concentration ranges selected for each drug and investigational agent were based upon clinically achievable concentrations if the clinical Cmax of the agent was known.
Compounds. The drugs and investigational agents: novobiocin (NSC847541), ART-558 (NSC835418), RP-6685 (NSC848927), peposertib (NSC802822), ceralasertib (NSC780249), elimusertib (NSC800525), camonsertib (NSC841442), AZD-1390 (NSC803789), olaparib (NSC753686), talazoparib (NSC767125), rucaparib (NSC756644), sotorasib (NSC818433), MRTX-1133 (NSC836407), SN-38 (NSC673596), topotecan (NSC609699), epotoside (NSC141540), doxorubicin (NSC123127), gemcitabine (NSC613327), 5-fluorouracil (NSC19893), paclitaxel (NSC125973), vemurafenib (NSC761431), MSA-2 (NSC828583), SN-011 (NSC837082), adavosertib (NSC754352), prexasertib (NSC758257), carboplatin (NSC241240) and oxaliplatin (NSC266046), were obtained from the National Cancer Institute (NCI) Developmental Therapeutics Program Chemical Repository (21). The FDA-approved anticancer drug set is available from the Developmental Therapeutics Program at https://dtp.cancer.gov/organization/dscb/obtaining/. […] The stock solutions were prepared in dimethyl sulfoxide (DMSO, Sigma-Aldrich, St. Louis, MO, cat. D2650), except for the platinum compounds which were prepared in saline (Quality Biological, Gaithersburg, MD, cat. 114-055-101), at 800-fold the tested concentration and stored at -70 degrees C prior to their use. All drugs and investigational agents were tested over a range starting from a high concentration at or near the clinical Cmax and decreasing in half-log increments. If the clinical Cmax for an agent had not been determined, the highest concentration tested was 10 microM, except for SN-38, which was tested at a high concentration of 1 microM.
Cell Culture. All cells were maintained in an incubator at 37 degrees C and 5% CO2 with 95% humidity. The PDC lines were cultured according to standard operating procedures established by the NCI PDMR (https://pdmr.cancer.gov). Table 3 of the manuscript, lists the cell lines along with the number of the three cell types plated to form the mct-spheroids and media for tumor cell growth. After thawing, all PDC lines, except 997537-175-T-J1-PDC and 415267-285-R-J2-PDC, were cultured in Matrigel-coated flasks prepared with a working solution of 1X Ham's F-12 nutrient mix, without supplementation (Thermo Fisher Scientific, cat. 11765054), 100 U/mL penicillin-streptomycin (Thermo Fisher Scientific, cat. 15140122), and 2.5% Matrigel (Corning Inc., Corning, NY, cat. 354248) for the first three passages. The two PDC lines 997537-175-T-J1-PDC and 415267-285-R-J2-PDC were cultured on uncoated flasks. The 857933-349-R-J2-PDC line was cultured in 6C/Colon 1B media containing advanced DMEM/F-12 (Thermo Fisher Scientific, cat. 12634028), 10 mM HEPES (Thermo Fisher Scientific, cat. 15630080), 1X GlutaMAX supplement (Thermo Fisher Scientific, cat. 35050061), 0.1 mg/mL primocin (InvivoGen, San Diego, CA, cat. ant-pm-2), 10% defined fetal bovine serum, heat inactivated (HyClone Laboratories Inc., Logan, UT, cat. SH30070.03HI), 50% L-WRN conditioned media (ATCC, cat. CRL-3276), 1.25 mM N-Acetyl-L-cysteine (Sigma-Aldrich, cat. A9165), 10 mM nicotinamide (Sigma-Aldrich, cat. N0636), 1X B-27 supplement (Thermo Fisher Scientific, cat. 17504044), 1X N-2 supplement (Thermo Fisher Scientific, cat. […]

[1] = second compound 0.0316 µM, first compound 0.0316 µM
[2] = second compound 0.0316 µM, first compound 0.1 µM
[3] = second compound 0.0316 µM, first compound 0.316 µM
[4] = second compound 0.0316 µM, first compound 1 µM
[5] = second compound 0.0316 µM, first compound 3.16 µM
[6] = second compound 0.0316 µM, first compound 10 µM
[7] = second compound 0.1 µM, first compound 0.0316 µM
[8] = second compound 0.1 µM, first compound 0.1 µM
[9] = second compound 0.1 µM, first compound 0.316 µM
[10] = second compound 0.1 µM, first compound 1 µM
[11] = second compound 0.1 µM, first compound 3.16 µM
[12] = second compound 0.1 µM, first compound 10 µM
[13] = second compound 0.316 µM, first compound 0.0316 µM
[14] = second compound 0.316 µM, first compound 0.1 µM
[15] = second compound 0.316 µM, first compound 0.316 µM
[16] = second compound 0.316 µM, first compound 1 µM
[17] = second compound 0.316 µM, first compound 3.16 µM
[18] = second compound 0.316 µM, first compound 10 µM
[19] = second compound 1 µM, first compound 0.0316 µM
[20] = second compound 1 µM, first compound 0.1 µM
[21] = second compound 1 µM, first compound 0.316 µM
[22] = second compound 1 µM, first compound 1 µM
[23] = second compound 1 µM, first compound 3.16 µM
[24] = second compound 1 µM, first compound 10 µM
[25] = second compound 3.16 µM, first compound 0.0316 µM
[26] = second compound 3.16 µM, first compound 0.1 µM
[27] = second compound 3.16 µM, first compound 0.316 µM
[28] = second compound 3.16 µM, first compound 1 µM
[29] = second compound 3.16 µM, first compound 3.16 µM
[30] = second compound 3.16 µM, first compound 10 µM
[31] = second compound 10 µM, first compound 0.0316 µM
[32] = second compound 10 µM, first compound 0.1 µM
[33] = second compound 10 µM, first compound 0.316 µM
[34] = second compound 10 µM, first compound 1 µM
[35] = second compound 10 µM, first compound 3.16 µM
[36] = second compound 10 µM, first compound 10 µM
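Also: spheroids exposed to compounds for one week before readout.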
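For viability, T/C in this document: percent of DMSO vehicle wells luminescence so 100% = untreated viability.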

For `CC(C)n1c(=O)n(C)c2cnc3cc(F)c(-c4ccc(OCCCN5CCCCC5)nc4)cc3c21` + COC1C(OC(N)=O)C(O)C(Oc2ccc3c(O)c(NC(=O)c4ccc(O)c(CC=C(C)C)c4)c(=O)oc3c2C)OC1(C)C, the pIC50 (second compound 0.0316 µM) was > 7.50, the pIC50 (second compound 0.1 µM) was > 7.50 and the pIC50 (second compound 0.316 µM) was > 7.50. For the same molecule, the pIC50 (second compound 1 µM) was > 7.50, the pIC50 (second compound 3.16 µM) was > 7.50 and the pIC50 (second compound 10 µM) was > 7.50. The viability, T/C [1] was 40.7%, the viability, T/C [2] was 36.1% and the viability, T/C [3] was 34.5%. The viability, T/C [4] was 38.5%, the viability, T/C [5] was 39.4% and the viability, T/C [6] was 37.2%. For the same molecule, the viability, T/C [7] was 42.6%, the viability, T/C [8] was 38.5% and the viability, T/C [9] was 39.1%. For the same molecule, the viability, T/C [10] was 37.8%, the viability, T/C [11] was 36.9% and the viability, T/C [12] was 36.2%. It also gave a viability, T/C [13] of 40.6%, a viability, T/C [14] of 36.1% and a viability, T/C [15] of 42.4%. For the same molecule, the viability, T/C [16] was 44.7%, the viability, T/C [17] was 34% and the viability, T/C [18] was 30.2%. For the same molecule, the viability, T/C [19] was 34.6%, the viability, T/C [20] was 45.8% and the viability, T/C [21] was 37.2%. The viability, T/C [22] was 38.6%, the viability, T/C [23] was 39.2% and the viability, T/C [24] was 32.1%. The viability, T/C [25] was 44%, the viability, T/C [26] was 40% and the viability, T/C [27] was 42.3%. For the same molecule, the viability, T/C [28] was 33.4%, the viability, T/C [29] was 35.4% and the viability, T/C [30] was 39.6%. It also gave a viability, T/C [31] of 39.1%, a viability, T/C [32] of 39% and a viability, T/C [33] of 38.8%. For the same molecule, the viability, T/C [34] was 43.4%, the viability, T/C [35] was 35.2% and the viability, T/C [36] was 32.6%.
`CCc1cc2c(N3CCc4c(cc(Cn5ccnc5)cc4-c4cn(C)nc4C(F)(F)F)C3=O)cc(C)nc2c(OC)n1` + COC1C(OC(N)=O)C(O)C(Oc2ccc3c(O)c(NC(=O)c4ccc(O)c(CC=C(C)C)c4)c(=O)oc3c2C)OC1(C)C was tested, and the pIC50 (second compound 0.0316 µM) was < 5.00, the pIC50 (second compound 0.1 µM) was < 5.00 and the pIC50 (second compound 0.316 µM) was < 5.00. The pIC50 (second compound 1 µM) was < 5.00, the pIC50 (second compound 3.16 µM) was < 5.00 and the pIC50 (second compound 10 µM) was < 5.00. The viability, T/C [1] was 96.1%, the viability, T/C [2] was 95.7% and the viability, T/C [3] was 92.4%. For the same molecule, the viability, T/C [4] was 129%, the viability, T/C [5] was 125% and the viability, T/C [6] was 119%. It also gave a viability, T/C [7] of 100%, a viability, T/C [8] of 88.8% and a viability, T/C [9] of 94.6%. The viability, T/C [10] was 126%, the viability, T/C [11] was 110% and the viability, T/C [12] was 93.7%. The viability, T/C [13] was 93.7%, the viability, T/C [14] was 94.5% and the viability, T/C [15] was 108%. For the same molecule, the viability, T/C [16] was 102%, the viability, T/C [17] was 102% and the viability, T/C [18] was 111%. It also gave a viability, T/C [19] of 97.7%, a viability, T/C [20] of 98% and a viability, T/C [21] of 96.5%. For the same molecule, the viability, T/C [22] was 92.8%, the viability, T/C [23] was 121% and the viability, T/C [24] was 108%. The viability, T/C [25] was 102%, the viability, T/C [26] was 101% and the viability, T/C [27] was 123%. It also gave a viability, T/C [28] of 106%, a viability, T/C [29] of 123% and a viability, T/C [30] of 116%. It also gave a viability, T/C [31] of 102%, a viability, T/C [32] of 85.6% and a viability, T/C [33] of 106%. It also gave a viability, T/C [34] of 95.1%, a viability, T/C [35] of 109% and a viability, T/C [36] of 102%.
In the case of `CCc1cc2c(N3CCc4c(cc(Cn5ccnc5)cc4-c4cn(C)nc4C(F)(F)F)C3=O)ccnc2c(OC)n1` + COC1C(OC(N)=O)C(O)C(Oc2ccc3c(O)c(NC(=O)c4ccc(O)c(CC=C(C)C)c4)c(=O)oc3c2C)OC1(C)C, the pIC50 (second compound 0.0316 µM) was < 5.00, the pIC50 (second compound 0.1 µM) was < 5.00 and the pIC50 (second compound 0.316 µM) was < 5.00. The pIC50 (second compound 1 µM) was < 5.00, the pIC50 (second compound 3.16 µM) was < 5.00 and the pIC50 (second compound 10 µM) was < 5.00. For the same molecule, the viability, T/C [1] was 95.3%, the viability, T/C [2] was 92.8% and the viability, T/C [3] was 108%. For the same molecule, the viability, T/C [4] was 119%, the viability, T/C [5] was 113% and the viability, T/C [6] was 116%. The viability, T/C [7] was 92.8%, the viability, T/C [8] was 108% and the viability, T/C [9] was 116%. The viability, T/C [10] was 104%, the viability, T/C [11] was 110% and the viability, T/C [12] was 111%. For the same molecule, the viability, T/C [13] was 104%, the viability, T/C [14] was 91% and the viability, T/C [15] was 92.2%. For the same molecule, the viability, T/C [16] was 101%, the viability, T/C [17] was 112% and the viability, T/C [18] was 124%. For the same molecule, the viability, T/C [19] was 86.6%, the viability, T/C [20] was 91.4% and the viability, T/C [21] was 102%. It also gave a viability, T/C [22] of 100%, a viability, T/C [23] of 115% and a viability, T/C [24] of 124%. The viability, T/C [25] was 91.9%, the viability, T/C [26] was 105% and the viability, T/C [27] was 129%. For the same molecule, the viability, T/C [28] was 114%, the viability, T/C [29] was 105% and the viability, T/C [30] was 114%. For the same molecule, the viability, T/C [31] was 93%, the viability, T/C [32] was 98.1% and the viability, T/C [33] was 105%. For the same molecule, the viability, T/C [34] was 109%, the viability, T/C [35] was 105% and the viability, T/C [36] was 122%.
